Measured values reported in patent publication US10329309B2, “3-(3H-imidazo[4,5-B]pyridin-2-yl)-1H-pyrazolo[4,3-B]pyridines and therapeutic uses thereof” (Samumed, LLC, priority 2015, dated 2019).
pEC50: −log10 of the molar value.

What was measured:
[1] = tested on: primary human fibroblasts derived from IPF patients (LL29 cells), α-smooth muscle actin (αSMA); assay: Inhibition of the fibrotic process: TGF-β1-treated primary human fibroblasts from IPF patients, αSMA staining; assay type: cell-based; details: Fibroblast, 96 h, 4 days; for pEC50: LL29 fibroblasts from IPF patients, TGF-β1 20 ng/mL, inhibition of fibrotic process; for inhibition at 10 µM: LL29 fibroblasts, TGF-β1 treated, read-out: percent inhibition at 10 μM (given for EC50 of >10 μM)
Method in brief: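 Potency reflects suppression of TGF-β1-driven αSMA expression in IPF patient fibroblasts over 4 days. Values are EC50s from normalized αSMA-positive cell counts, with % inhibition at 10 μM when EC50 exceeded 10 μM.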

[2] = tested on: Wnt activity (Sp5-Luc reporter, SW480 colon carcinoma cells); assay: Screening assay for Wnt activity: Sp5-Luc reporter gene assay in SW480 cells; assay type: cell-based; details: Homo sapiens; for inhibition at 10 µM: 10 μM compound, read-out: percent inhibition at 10 μM (given for EC50 of >10 μM); for pEC50: overnight incubation, 10-point dose-response from 10 μM
Method in brief: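 Luminescence (BrightGlo) read after overnight 37 °C exposure of Sp5-Luc SW480 reporter cells, 4,000/well in 1% FBS, to compound dosed 1:3 over 10 points from 10 μM with 0.1% DMSO. Values normalized to DMSO-only cells, fitted with variable-slope four-parameter model; where EC50 exceeds 10 μM, % inhibition at 10 μM reported.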

Structure (SMILES)	pEC50 [1]	inhibition at 10 µM [2]	pEC50 [2]	inhibition at 10 µM [1]
COc1cncc(-c2ccc3[nH]nc(-c4nc5c(-c6ccoc6)ccnc5[nH]4)c3n2)c1 [Compound 692, 3-(7-(Furan-3-yl)-3H-imidazo[4,5-b]pyridin-2-yl)-5-(5-methoxypyridin-3-yl)-1H-pyrazolo[4,3-b]pyridine]	5.88	15.3%	< 5.00	–
CS(=O)(=O)NCc1cc(F)cc(-c2ccnc3[nH]c(-c4n[nH]c5ccc(-c6cncc(NC(=O)CC7CCNCC7)c6)nc45)nc23)c1 [Compound 769, N-(5-(3-(7-(3-Fluoro-5-(methylsulfonamidomethyl)phenyl)-3H-imidazo[4,5-b]pyridin-2-yl)-1H-pyrazolo[4,3-b]pyridin-5-yl)pyridin-3-yl)-2-(piperidin-4-yl)acetamide]	5.35	12.1%	< 5.00	–
c1cnc2[nH]c(-c3n[nH]c4ccc(-c5cncc(OC6CCNCC6)c5)nc34)nc2c1 [Compound 656, 3-(3H-Imidazo[4,5-b]pyridin-2-yl)-5-(5-(piperidin-4-yloxy)pyridin-3-yl)-1H-pyrazolo[4,3-b]pyridine]	5.20	22.1%	< 5.00	–
Cc1cn(-c2ccnc3[nH]c(-c4n[nH]c5ccc(-c6cncc(CN7CCCC7)c6)nc45)nc23)cn1 [Compound 210, 3-(7-(4-methyl-1H-imidazol-1-yl)-3H-imidazo[4,5-b]pyridin-2-yl)-5-(5-(pyrrolidin-1-ylmethyl)pyridin-3-yl)-1H-pyrazolo[4,3-b]pyridine]	5.17	31.5%	< 5.00	–
Cn1cc(-c2ccc3[nH]nc(-c4nc5c(-c6ccc7c(c6)OCO7)ccnc5[nH]4)c3n2)c(CO)n1 [Compound 1152, (4-(3-(7-(Benzo[d][1,3]dioxol-5-yl)-3H-imidazo[4,5-b]pyridin-2-yl)-1H-pyrazolo[4,3-b]pyridin-5-yl)-1-methyl-1H-pyrazol-3-yl)methanol]	6.50	15.4%	< 5.00	–
O=C(Nc1cncc(-c2ccc3[nH]nc(-c4nc5c(-c6ccncc6)ccnc5[nH]4)c3n2)c1)C1CCCCC1 [Compound 135, N-(5-(3-(7-(pyridin-4-yl)-3H-imidazo[4,5-b]pyridin-2-yl)-1H-pyrazolo[4,3-b]pyridin-5-yl)pyridin-3-yl)cyclohexanecarboxamide]	< 5.00	10.4%	< 5.00	0%
CCCC(=O)Nc1cncc(-c2ccc3[nH]nc(-c4nc5c(-c6ccncc6)ccnc5[nH]4)c3n2)c1 [Compound 129, N-(5-(3-(7-(pyridin-4-yl)-3H-imidazo[4,5-b]pyridin-2-yl)-1H-pyrazolo[4,3-b]pyridin-5-yl)pyridin-3-yl)butyramide]	< 5.00	4.3%	< 5.00	0%
c1cc(-c2ccc3c(c2)OCO3)c2nc(-c3n[nH]c4ccc(C5CCNCC5)nc34)[nH]c2n1 [Compound 1108, 3-(7-(Benzo[d][1,3]dioxol-5-yl)-3H-imidazo[4,5-b]pyridin-2-yl)-5-(piperidin-4-yl)-1H-pyrazolo[4,3-b]pyridine]	< 5.00	9.3%	< 5.00	0%
Fc1cccc(-c2ccnc3[nH]c(-c4n[nH]c5ccc(-c6cncc(CN7CCC(F)(F)C7)c6)nc45)nc23)c1 [Compound 26, 5-(5-((3,3-Difluoropyrrolidin-1-yl)methyl)pyridin-3-yl)-3-(7-(3-fluorophenyl)-3H-imidazo[4,5-b]pyridin-2-yl)-1H-pyrazolo[4,3-b]pyridine]	6.46	–	6.05	–
CN(C)c1cncc(-c2ccc3[nH]nc(-c4nc5c(-c6cccs6)ccnc5[nH]4)c3n2)c1 [Compound 343, N,N-dimethyl-5-(3-(7-(thiophen-2-yl)-3H-imidazo[4,5-b]pyridin-2-yl)-1H-pyrazolo [4,3-b]pyridin-5-yl)pyridin-3-amine]	5.93	31.7%	< 5.00	–
Cn1cc(-c2ccc3[nH]nc(-c4nc5c(N6CCCCC6)ccnc5[nH]4)c3n2)c(CO)n1 [Compound 1134, (1-Methyl-4-(3-(7-(piperidin-1-yl)-3H-imidazo[4,5-b]pyridin-2-yl)-1H-pyrazolo[4,3-b]pyridin-5-yl)-1H-pyrazol-3-yl)methanol]	6.83	4%	< 5.00	–
Cc1cn(-c2ccnc3[nH]c(-c4n[nH]c5ccc(-c6cncc(NC(=O)C(C)(C)C)c6)nc45)nc23)cn1 [Compound 204, N-(5-(3-(7-(4-methyl-1H-imidazol-1-yl)-3H-imidazo[4,5-b]pyridin-2-yl)-1H-pyrazolo[4,3-b]pyridin-5-yl)pyridin-3-yl)pivalamide]	< 5.00	12.2%	< 5.00	38.8%
CN(C)CCNc1cc(F)cc(-c2ccnc3[nH]c(-c4n[nH]c5ccc(-c6cnccn6)nc45)nc23)c1 [Compound 792, N^1-(3-Fluoro-5-(2-(5-(pyrazin-2-yl)-1H-pyrazolo[4,3-b]pyridin-3-yl)-3H-imidazo[4,5-b]pyridin-7-yl)phenyl)-N^2,N^2-dimethylethane-1,2-diamine]	5.65	–	5.41	–
COc1cncc(-c2ccc3[nH]nc(-c4nc5c(N6CCCCC6)ccnc5[nH]4)c3n2)c1 [Compound 612, 5-(5-Methoxypyridin-3-yl)-3-(7-(piperidin-1-yl)-3H-imidazo[4,5-b]pyridin-2-yl)-1H-pyrazolo[4,3-b]pyridine]	< 5.00	5.8%	< 5.00	30.3%
c1cc(-c2ccnc3[nH]c(-c4n[nH]c5ccc(-c6cnccn6)nc45)nc23)ccn1 [Compound 584, 5-(Pyrazin-2-yl)-3-(7-(pyridin-4-yl)-3H-imidazo[4,5-b]pyridin-2-yl)-1H-pyrazolo[4,3-b]pyridine]	< 5.00	8.5%	< 5.00	4.5%
O=C(Cc1ccccc1)Nc1cncc(-c2ccc3[nH]nc(-c4nc5c(-c6ccncc6)ccnc5[nH]4)c3n2)c1 [Compound 122, 2-phenyl-N-(5-(3-(7-(pyridin-4-yl)-3H-imidazo[4,5-b]pyridin-2-yl)-1H-pyrazolo[4,3-b]pyridin-5-yl)pyridin-3-yl)acetamide]	< 5.00	8.4%	< 5.00	0%
O=C(Nc1cncc(-c2ccc3[nH]nc(-c4nc5c(-c6ccccn6)ccnc5[nH]4)c3n2)c1)c1ccccc1 [Compound 151, N-(5-(3-(7-(Pyridin-2-yl)-3H-imidazo[4,5-b]pyridin-2-yl)-1H-pyrazolo[4,3-b]pyridin-5-yl)pyridin-3-yl)benzamide]	< 5.00	6.4%	< 5.00	0%
Fc1cccc(-c2ccnc3[nH]c(-c4n[nH]c5ccc(C6CCNCC6)nc45)nc23)c1 [Compound 505, 3-(7-(3-fluorophenyl)-3H-imidazo[4,5-b]pyridin-2-yl)-5-(piperidin-4-yl)-1H-pyrazolo[4,3-b]pyridine]	5.31	16%	< 5.00	–
Fc1cccc(-c2ccnc3[nH]c(-c4n[nH]c5ccc(-c6cn[nH]c6)nc45)nc23)c1 [Compound 507, 3-(7-(3-fluorophenyl)-3H-imidazo[4,5-b]pyridin-2-yl)-5-(1H-pyrazol-4-yl)-1H-pyrazolo[4,3-b]pyridine]	< 5.00	17%	< 5.00	16.2%
CN(C)Cc1cncc(-c2ccc3[nH]nc(-c4nc5c(N6CCCCC6)ccnc5[nH]4)c3n2)c1 [Compound 181, N,N-dimethyl-1-(5-(3-(7-(piperidin-1-yl)-3H-imidazo[4,5-b]pyridin-2-yl)-1H-pyrazolo[4,3-b]pyridin-5-yl)pyridin-3-yl)methanamine]	5.87	2.2%	< 5.00	–
c1cc(N2CCCCC2)c2nc(-c3n[nH]c4ccc(-c5cncc(OCCN6CCCC6)c5)nc34)[nH]c2n1 [Compound 610, 3-(7-(Piperidin-1-yl)-3H-imidazo[4,5-b]pyridin-2-yl)-5-(5-(2-(pyrrolidin-1-yl)ethoxy)pyridin-3-yl)-1H-pyrazolo[4,3-b]pyridine]	5.64	4.8%	< 5.00	–
O=C(Cc1ccccc1)Nc1cncc(-c2ccc3[nH]nc(-c4nc5cccnc5[nH]4)c3n2)c1 [Compound 262, N-(5-(3-(3H-imidazo[4,5-b]pyridin-2-yl)-1H-pyrazolo[4,3-b]pyridin-5-yl)pyridin-3-yl)-2-phenylacetamide]	< 5.00	7.6%	< 5.00	0%
